Like-named read-outs stand apart in the source and are kept apart here.
What was measured:
HL-60 cells = assay: IC50 determination: incorporation of 13C-acetate into cholesterol in HL-60 cells (GC-MS); assay type: cell-based; details: Homo sapiens, read-out: HL60 assay activity
Method: Two test concentrations (1 μM and 50 μM) were used. The compounds were dissolved in ethanol or DMSO and the testing-stock solutions are prepared taking a final dilution of 1:100 into account. Ultimately 10 μL of testing stock solution were added to 990 μL of lipid-free medium containing 1% lipoprotein deficient serum (LPDS) without antibiotics. HL-60 cells (1×10^6 cells) were incubated in 24-well plates in 1.0 mL of medium consisting of 990 μL of lipid free medium with 1% LPDS and 10 μL of respective inhibitor solution.
For IC50 determination, the incorporation of labelled acetate in the target molecule cholesterol is being assessed and the protocol is altered in the following manner: to each well 10 μL of a sterile sodium 2-^13C-acetate solution (6.25 mg/mL) were added before the addition of the inhibitor solution, leading to a final ^13C-acetate concentration of 62.5 μg/mL. After saponification 3×25 μL aliquots are taken for protein determination applying the Bradford reagent. After work-up and silylation, GC-MS analysis allows the quantification ^13C incorporation into cholesterol according to the below given formula. The percentage inhibition (see formula) relative to untreated control samples (0% inhibition) was plotted against the logarithmic inhibitor concentration using Graph Pad Prism 4 (or higher). A bottom level constant equal to 0 is set as constraint using a sigmoidal dose-response model with a various slope. All samples are normalised to their protein. For each concentration the inhibitory percentage is determined in triplicate.
The above formula is the calculation formula for the percentage inhibition, where AS represents the area sample; AI.S.C. represents the area internal standard control; PCC represents the protein content control; AC represents the area control; AI.S.S. represents the area internal standard sample; and PCs represents the protein content sample.

male E3L.CETP mice [1] = assay: E3L.CETP mice on high fat high cholesterol diet, SH42 for 8 weeks (hepatic steatosis, lipidomics, immunohistochemistry, plasma lipids); assay type: in vivo
male E3L.CETP mice [2] = assay: Rescue experiment: E3L.CETP mice on HFCD for 10 weeks, then SH42 for additional 8 weeks; assay type: in vivo
From the text: Hemizygous APOE*3-Leiden (E3L) mice were crossbred with homozygous human cholesteryl ester transfer protein (CETP) transgenic mice to generate heterozygous E3L.CETP mice on a C57BL/6J background [M. Westerterp et al., “Cholesteryl ester transfer protein decreases high-density lipoprotein and severely aggravates atherosclerosis in APOE*3-Leiden mice”; Arterioscler Thromb Vasc Biol 26, 2552-2559 (2006)]. Because of phenotypical heterogeneity of E3L. CETP mice, non-responder mice were identified by 4-hour fasting plasma lipid levels, i.e., total cholesterol levels <2 mM and triglyceride levels <2 mM, and excluded before special diet treatment. LXRα-deficient mice (also on C57BL/6J background), generated by Deltagen using gene-targeting methods as described [T. Plosch et al., “Abcg5/Abcg8-independent pathways contribute to hepatobiliary cholesterol secretion in mice”; Am J Physiol Gastrointest Liver Physiol, 291, G414-423 (2006)(33)] were provided by Tularik (San Francisco, CA, US). Mice were group-housed in individually ventilated cages in standard conditions at room temperature (22° C.) with 40±5% relative humidity and a 12-h light/dark (7 am lights on; 7 pm lights off) cycle. All animals received humane care according to the criteria outlined in the NIH “Guide for the Care and Use of Laboratory Animals”. All animal procedures were performed in conformance with the guidelines from Directive 2010/63/EU of the European Parliament on the protection of animals used for scientific purposes.
At the age of 10-12 weeks, male E3L.CETP mice and LXRα-deficient mice were fed a high fat high cholesterol diet (HFCD; Altromin, Germany) containing 60% (energy) fat and 1% (wt/wt) cholesterol, and were randomized into two groups treated with either the DHCR24 inhibitor compound of Example 11 [also referred to herein as SH42] (0.5 mg·mouse^−1) or vehicle (saline containing 3.3% ethanol and 3.3% Cremophor EL) 3 times per week by intraperitoneal injection. E3L.CETP mice were treated for 4 weeks (n=6 mice per group) and 8 weeks (n=8 mice per group) to evaluate effects on hepatic immune cells via flow cytometry analysis and hepatic steatosis via quantitative lipidomic analysis, respectively. LXRα-deficient mice were treated with either SH42 (n=11 mice) or vehicle (n=10 mice) for 4 weeks to evaluate effects on hepatic steatosis and immune cells. In a rescue experiment, male E3L.CETP mice were fed with HFCD for 10 weeks first and cotreated with SH42 (0.5 mg mouse^−1) or vehicle (saline containing 3.3% ethanol and 3.3% Cremophor EL) 3 times per week by intraperitoneal injection for additional 8 weeks.
Body weight was measured weekly. Body composition (i.e. fat body and lean body mass; EchoMRI-100; EchoMRI, Houston, TX, USA) was evaluated before and after intervention. Food intake was determined during the treatment period.

male E3L.CETP mice [3] = assay: E3L.CETP mice on HFCD, SH42 for 4 weeks, flow cytometry of hepatic immune cells; assay type: in vivo
From the text: Hemizygous APOE*3-Leiden […]) mice were crossbred with homozygous human cholesteryl ester transfer protein (CETP) transgenic mice to generate heterozygous E3L.CETP mice on a C57BL/6J background [[…] al., “Cholesteryl ester transfer protein decreases high-density lipoprotein and severely aggravates atherosclerosis in APOE*3-Leiden mice”; Arterioscler Thromb Vasc Biol 26, 2552-2559 (2006)]. Because of phenotypical heterogeneity of E3L. CETP mice, non-responder mice were identified by 4-hour fasting plasma lipid levels, i.e., total cholesterol levels <2 mM and triglyceride levels <2 mM, and excluded before special diet treatment. LXRα-deficient mice (also on C57BL/6J background), generated by Deltagen using gene-targeting methods as described [T. Plosch et al., “Abcg5/Abcg8-independent pathways contribute to hepatobiliary cholesterol secretion in mice”; Am J Physiol Gastrointest Liver Physiol, 291, […]-423 (2006)(33)] were provided by Tularik (San Francisco, CA, US). […] All animals received humane care according to the criteria outlined in the NIH “Guide for the Care and Use of Laboratory Animals”. All animal procedures were performed in conformance with the guidelines from Directive 2010/63/EU of the European Parliament on the protection of animals used for scientific purposes. At the age of 10-12 weeks, male E3L.CETP mice and LXRα-deficient mice were fed a high fat high cholesterol diet (HFCD; […] LXRα-deficient mice were treated with either SH42 (n=11 mice) or vehicle (n=10 mice) for 4 weeks to evaluate effects on hepatic steatosis and immune cells. In a rescue experiment, male E3L.CETP mice were fed with HFCD for 10 weeks first and cotreated with SH42 (0.5 mg mouse^-1) or vehicle (saline containing 3.3% ethanol and 3.3% Cremophor EL) 3 times per week by intraperitoneal injection for additional 8 weeks.

[4] = HL-60 cells, 24 h, 13C-acetate incorporation into cholesterol
[5] = 8 weeks, absolute concentration
[6] = after 8 weeks of treatment, vs control group
[7] = 10 weeks HFCD, then 8 weeks treatment

## C=C(F)C(=O)N(C)C[C@@H](C)[C@H]1CC[C@H]2C3=CCC4C[C@@H](OC(C)=O)CC[C@]4(C)[C@H]3CC[C@]12C (stereo partly drawn) [Example 37, (3S,20S)-20-[(2-Fluoro-N-methylacrylamido)methyl]-pregn-7-en-3-yl Acetate]
HL-60 cells; [4]
  IC50: 110 nM

## C[C@H](CO)[C@H]1CC[C@H]2C3=CCC4C[C@H](O)CC[C@]4(C)[C@H]3CC[C@]12C (stereo partly drawn) [Example 31, (3R,20S)-20-(Hydroxymethyl)-pregn-7-en-3-ol]
HL-60 cells; HL-60, 24 h
  IC50: 280 nM

## C[C@H](CSSc1ccccn1)C1CCC2C3=CCC4C[C@@H](O)CC[C@]4(C)C3CC[C@@]21C (some centres unmarked) [Example 5]
HL-60 cells; [4]
  IC50: 417 nM

## CC(=O)O[C@H]1CC[C@@]2(C)C(CC=C3C2CC[C@@]2(C)C3CCC2[C@H](C)COC(=O)CN(C)C)C1 (some centres unmarked) [Example 25]
HL-60 cells; HL-60, 24 h
  IC50: 6 nM

## C[C@H](CO)C1CCC2C3CC=C4C[C@@H](O)CC[C@]4(C)C3CC[C@@]21C (some centres unmarked) [Example 29]
HL-60 cells; HL-60, 24 h
  IC50: 3 nM

## CC(=O)O[C@H]1CC[C@@]2(C)C(CC=C3[C@@H]4CC[C@H]([C@H](C)CCOC=O)[C@@]4(C)CC[C@@H]32)C1 (stereo partly drawn) [Example 34, (3S,20R)-20-(2-Formyloxyethyl)-pregn-7-en-3-yl Acetate]
HL-60 cells; [4]
  IC50: 1000 nM

## C[C@H](CO)C1CCC2c3ccc4c(c3CC[C@@]21C)CC[C@H](O)C4 (stereo partly drawn) [Example 33, (3S,20S)-20-(Hydroxymethyl)-pregn-5,7,9-trien-3-ol]
HL-60 cells; [4]
  IC50: 175 nM

## CC(=O)O[C@H]1CC[C@@]2(C)C(CC=C3C2CC[C@@]2(C)C3CCC2[C@H](C)COC=O)C1 (some centres unmarked) [Example 11]
Male E3L.CETP mice [1]; 0.5 mg/mouse i.p. 3 times per week, 8 weeks, vs vehicle
  food intake: did not affect
Male E3L.CETP mice [1]; 0.5 mg/mouse i.p. 3 times per week, vs control group
  HFCD-induced body weight gain: temporarily preventing
Male E3L.CETP mice [1]; 8 weeks
  fasting plasma glucose: did not affect
  fasting plasma insulin: did not affect
  homeostatic Model Assessment for Insulin Resistance (HOMA-IR) scores: did not affect
  weight of various tissues (liver, white adipose tissue, kidney, heart, lung, spleen, brown adipose tissue): unchanged
Male E3L.CETP mice [1]; [5]
  plasma levels of FFA, change: −16%
  plasma levels of total DAG: did not affect
  plasma levels of total TAG: did not affect
Male E3L.CETP mice [1]; 8 weeks, absolute concentration, p=0.08
  plasma levels of CE, change: −24%
Male E3L.CETP mice [1]; 8 weeks, immunohistochemistry
  hepatic F4/80 content, change: −29%
  number of hepatic crown-like structures, change: −79%
Male E3L.CETP mice [1]; 8 weeks, liver
  hepatic free fatty acids (FFA), change: −16%
Male E3L.CETP mice [1]; 8 weeks, liver lipidomics
  other liver lipid classes, including CER, PC, PE and SM (relative): relative increase
  relative reduction of DAG in liver lipid class composition: −22%
  relative reduction of TAG in liver lipid class composition: −21%
Male E3L.CETP mice [1]; 8 weeks, liver, vs vehicle
  increase of hepatic desmosterol levels: 10 fold
Male E3L.CETP mice [1]; 8 weeks, plasma
  circulating CE (relative, plasma lipidome): relatively decreased
  lactosylceramides (LCER), phosphatidylcholine (PC) and phosphatidylethanolamine (PE) (relative, plasma lipidome): relatively increasing
Male E3L.CETP mice [1]; 8 weeks, vs control treatment
  hepatic steatosis score (HE staining), change: −58%
  liver lipid area, change: −35%
Male E3L.CETP mice [1]; [6]
  body composition (lean body mass and fat body mass): comparable to that of the control group
  body weight: comparable to that of the control group
Male E3L.CETP mice [1]; plasma, from undetectable levels (<0.5 μg·mL^−1)
  plasma desmosterol levels: 3.1 ± 0.4 µg/mL
Male E3L.CETP mice [2]; [7]
  body composition: did not significantly influence
  collagen content (liver fibrosis), change: −50%
  hepatic crown-like structures, change: −89%
  hepatic steatosis: No difference
  increase in plasma desmosterol levels: > 400 fold
  liver weight: No difference
  plasma alanine transaminase (ALT), change: −42%
  total body weight: did not significantly influence
Male E3L.CETP mice [2]; mouse, in vivo
  F4/80 positive area: without significant influence
Male E3L.CETP mice [3]
  circulating neutrophils: without affecting
  hepatic neutrophils, change: −50%
  monocytes in liver, change: −79%
Male E3L.CETP mice [3]; flow cytometry
  MHCII+/CD11c+ activated KCs: did not significantly reduce
  MHCII−/CD11c− resting KCs, change: +21%
  total Kupffer cells (KCs), change: +44%
Male E3L.CETP mice [3]; flow cytometry, p=0.09
  total hepatic leukocytes, change: −37%
Male E3L.CETP mice [3]; p=0.06
  monocytes in blood, change: −43%

## C=C(F)C(=O)OC[C@@H](C)C1CCC2c3ccc4c(c3CC[C@@]21C)CC[C@H](OC(C)=O)C4 (stereo partly drawn) [Example 35, (3S,20S)-20-[(2-Fluoroacryloyloxy)methyl]-pregn-5,7,9-trien-3-yl Acetate]
HL-60 cells; [4]
  IC50: 130 nM

## C[C@@H](CO)[C@H]1CC[C@H]2C3=CCC4C[C@@H](O)CC[C@]4(C)[C@H]3CC[C@]12C (stereo partly drawn) [Example 30, (3S,20R)-20-(Hydroxymethyl)-pregn-7-en-3-ol]
HL-60 cells; HL-60, 24 h
  IC50: 300 nM

Reference: patent US20250312355A1, “DHCR24 INHIBITORY COMPOUNDS” (ACADEMISCH ZIEKENHUIS LEIDEN (H.O.D.N. LUMC), priority 2022, published 2025)
